Read-outs that look alike come from different tables or passages of the source.

The target in assay [1] is T1, ecDHFR (wild-type, l-DHFR) (Escherichia coli, UniProt P0ABQ4).
T1 sequence (P0ABQ4 1-159): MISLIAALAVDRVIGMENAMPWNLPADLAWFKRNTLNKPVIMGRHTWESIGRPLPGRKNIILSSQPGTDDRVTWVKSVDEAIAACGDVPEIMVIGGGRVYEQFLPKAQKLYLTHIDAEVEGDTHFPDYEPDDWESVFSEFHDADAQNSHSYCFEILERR
As to the kind of experiment: steady-state absorbance at […] nm. The class given is biochemical. The following applies: read-out: 25 °C, pH 7 / l-DHFR, MTEN buffer pH 7, 25 °C.

Assay [2] concerns the target T1, ecDHFR (wild-type, l-DHFR). As to the kind of experiment: stopped-flow tryptophan fluorescence quenching, koff/kon. Format: binding.
Assay [3] addresses T1, ecDHFR (wild-type, l-DHFR). As to the kind of experiment: stopped-flow fluorescence. Format: binding.

For the molecule `Nc1nc2c(c(=O)[nH]1)N=C(CNc1ccc(C(=O)N[C@@H](CCC(=O)O)C(=O)O)cc1)CN2` [DHF], the Km in assay [1] (100 μM NADPH) came out at 0.53 ± 0.04 µM.

What is called Kd is the constant that tells how readily two partners part at equilibrium. `Nc1nc2ncc(CNc3ccc(C(=O)N[C@@H](CCC(=O)O)C(=O)O)cc3)nc2c(=O)[nH]1` [FA] showed a Kd in assay [2] of 3.22 ± 0.09 µM. In assay [3], `NC(=O)C1=CN([C@@H]2O[C@H](COP(=O)(O)OP(=O)(O)OC[C@H]3O[C@@H](n4cnc5c(N)ncnc54)[C@H](OP(=O)(O)O)[C@@H]3O)[C@@H](O)[C@H]2O)C=CC1` [NADPH] had a Kd of 0.18 ± 0.09 µM. Besides, in assay [1] (100 μM DHF), the Km was 7.2 ± 0.8 µM.

(Values after publication PMC4063187 (Journal of the American Chemical Society, 2014).)
